Reference: patent US9724537B2, “Abnormal electrical conduction blocking apparatus using photodynamic therapy (PDT)” (Keio University, priority 2006, dated 2017)
Where “and” joins values, the source holds several entries; their conditions need not be identical. Equal values may be shown once.

What was measured:
[1] = tested on: isolated ventricular muscle tissue; assay: Formation of electrical conduction block by PDT in isolated cardiac muscle tissue; set-up: species or system Wister rat; conditions: 4.3 μg/ml
Description: An electrical conduction block was formed by performing PDT using a cardiac muscle tissue.
A cardiac muscle tissue was isolated from a Wister rat, immersed in a perfusion fluid (Tyrode's solution [aerated with 95% O2 and 5% CO2 gases and stored at 37° C. in a constant-temperature apparatus]), spread, fixed on the floor (made of silicon) of a tissue bath with a tungsten wire to prepare a spread sample (maximum 1.5 cm long, 1.0 cm width, 0.18 cm thickness) of an isolated ventricular muscle. A perfusion fluid was passed through the spread sample and stabilized by allowing to stand for approx. 3 h. At this time, the perfusion fluid was not reused.
As a photosensitizer, talaporfin sodium was dissolved in a perfusion fluid at 4.3 μg/ml, and 300 cc was circulated and perfused. It is assumed that, when a photosensitizer is intravenously injected to a 300-g rat at approx. 2 mg/kg, the photosensitizer is dissolved at about this concentration in the fluid throughout the body. After loading for 2 h, a liquid level of the perfusion fluid was lowered to the tissue surface or lower, and the spread tissue was irradiated with a laser beam.
The irradiation laser beam was a continuous semiconductor laser beam (peak wavelength, 670.8 nm) and was delivered to the tissue from an irradiation port of 0.0078 cm^2 at the fiber end with an intensity of 150 mW/cm^2 in a contact state. While moving the fiber, a 0.1-cm^2 (0.1 cm length×1 cm width) region of the tissue surface was irradiated with a laser beam for 5 min. Irradiation was performed at 3.5 J/cm^2 in terms of total energy density.
The tissue action potential was measured as follows. An electrical stimulus of 2 Hz and 50 mA was applied from a bipolar electrode (0.2φ silver wire) using a stimulator, and a potential of the tissue surface was led with a bipolar measuring electrode (0.25φ stainless wire).
FIGS. 8A to 8F show changes in the potential of the spread tissue. In FIGS. 8A to 8F, the upper line represents potential changes at site 1 in FIG. 7. The lower line represents potential changes at site 2 in FIG. 7. The unit of the vertical axis is mV.

[2] = tested on: cultured cardiac muscle cells derived from an SD rat; assay: Changes in intracellular Ca^2+ concentration during PDT (Fluo-4AM); type: cell-based
Description: Intracellular Ca^2+ concentration changes in cells on day 1 after seeding were measured with the four protocols described later. Cultured cardiac muscle cells derived from an SD rat were used. As a medium for cell culture, D-MEM/F12+10% FBS was used. Before subjected to the experiment, cardiac muscle cells in suspension at 1.6×10^5 cells/ml were seeded on a 24-well plate with a glass bottom at 0.5 ml/well (8.0×10^4 cells/well) and cultured in an incubator (37° C., 5% CO2) for one day.
Further, MEM+10% FBS containing 2.2 mM Ca^2+ was used as a normal medium, and SMEM+10% FBS containing 364 μM Ca^2+ was used as a Ca^2+-free medium.
Intracellular Ca^2+ concentrations were measured using Fluo-4AM (Molecular Probe). 55 μl of DMSO (Dojindo Laboratories, pure solvent for fluorescence analysis) was added to 50 μg of Fluo-4AM, 10 μl of this mixture was added to 1 ml of a medium for measurement (normal medium or Ca^2+-free medium) at 8 μM, and cardiac muscle cells were brought into loading for 30 min. Fluo4 was excited with Ar laser (wavelength, 488 nm), and a fluorescence image at 510 to 560 nm was obtained with a CCD camera (Nippon Roper Co., Ltd., Retiga 2000R). 10 photos were taken with an exposure time of 10 s, and then PDT was performed by irradiation with a semiconductor laser beam (peak wavelength, 670.8 nm; power, 150 mW/cm^2; continuous light; total energy density, 5 or 10 J/cm^2), and a total of 40 photos (for approx. 408 s) were continuously taken during and after PDT. The image analysis was performed using Image J, an image analysis software, and changes in intracellular cumulative fluorescence on each slide were calculated. Assuming the initial cumulative fluorescence F0 as 1, fluorescence changes were calculated by F/F0. Further, cells were incubated at temperature of 37° C. using a hot plate (Tokai Hit) during observation.
Protocol 1 (Extracellular Distribution of Talaporfin Sodium, Extracellular Normal Ca^2+ Concentration)
(§1) Fluo-4AM (normal medium solution) is loaded with each well at room temperature for 30 min, then talaporfin sodium (normal medium) adjusted beforehand to various concentrations is added at 0.5 ml/well, and observation is performed immediately after addition.
Protocol 2 (Intracellular Distribution of Talaporfin Sodium, Extracellular Normal Ca^2+ Concentration)
as §1, with “performed” for “performed immediately”, “the medium is replaced with a normal medium after 30 min of loading.” for “addition.”
Protocol 3 (Extracellular Distribution of Talaporfin Sodium, No Extracellular Ca^2+) […]

[3] = rat, cited from earlier work

Structure (SMILES): C=Cc1c(C)c2cc3nc(c(CC(=O)N[C@@H](CC(=O)O)C(=O)O)c4[nH]c(cc5nc(cc1[nH]2)C(C)=C5CC)c(C)c4C(=O)O)[C@@H](CCC(=O)O)[C@@H]3C [talaporfin sodium, mono-L-aspartyl chlorine 6]
- time without electrical conduction after block ([1]; loading 2 h, 3.5 J/cm^2): ≥ 1 h
- electrical conduction (potential at site 2) ([1]; loading 2 h, 3.5 J/cm^2, 5 min after the completion of laser irradiation): the electrical conduction route was completely blocked
- electrical conduction (potential at site 2) ([1]; loading 2 h, 150 mW/cm^2, 5 min after the start of laser irradiation): a portion of the stimulus conduction route is blocked
- cell conditions in tissue sample at PDT site ([1]; 3.5 J/cm^2, FIG. 9): no major abnormality was observed in the cell conditions
- cell morphology during and after PDT ([2]; FIG. 23): 1) swelling of the cell itself and 2) growth of “bobble” were observed and Cell morphology did not virtually change after PDT
- change in intracellular Ca^2+ concentration during PDT ([2]; no extracellular Ca^2+, 30 μg/ml, 10 J/cm2): the intracellular Ca^2+ concentrations hardly changed
- change in intracellular Ca^2+ concentration during PDT ([2]; normal extracellular Ca^2+ concentration): Rapid increases in the intracellular Ca^2+ concentrations were observed immediately after performing PDT
- change in intracellular Ca^2+ concentration, photosensitizer outside vs inside the cell ([2]; normal extracellular Ca^2+, 0 min loading vs 30 min loading): rapid changes in the Ca^2+ concentration were confirmed when the photosensitizer exists only outside the cell
- average of the half-lives in plasma from 2 to 24 h ([3]; after intravenous injection): 9.6 h
- average of the half-lives in plasma from 2 to 60 min ([3]; intravenous injection 10 mg/kg): 47 min
